In US9113629B2, “4-amino-6-(4-substituted-phenyl)-picolinates and 6-amino-2-(4-substituted-phenyl)-pyrimidine-4-carboxylates and their use as herbicides” (DOW AGROSCIENCES LLC, priority 2013, dated 2015):
Read-outs that look alike come from different tables or passages of the source.

How the values were obtained:
[1] = tested on: KCHSC: kochia (Kochia scoparia); experiment: Post-emergent Test III, herbicidal activity in wheat and barley; assay type: in vivo; conditions: for pest or weed control at 35 g/ha / pest or weed control at 70 g/ha / pest or weed control at 140 g/ha: Bassia scoparia, post-emergence, 504 h, read-out: Visual Growth Reduction (%) 21 Days After Application KCHSC; for pest or weed control at 35 g/ha: 35 g ai/ha; for pest or weed control at 70 g/ha: 70 g ai/ha; for GR50 KCHSC / GR80 KCHSC: probit analysis; for pest or weed control at 140 g/ha: 140 g ai/ha
Procedure, shortened: (§1)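 GR20, GR50, GR80 and GR90 come from probit analysis of visual injury scores (0 = none, 100 = complete kill) taken 21 d after treatment. Foliar application was by track sprayer delivering 187 L/ha at five rates, from high down to 1/16×, onto greenhouse plants at the 2–3 leaf stage, with solvent-blank controls.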

[2] = as above; assay type: in vivo, Lolium multiflorum, Lolium rigidum; conditions: Lolium multiflorum, post-emergence, 504 h, read-out: Visual Growth Reduction (%) 21 Days After Application LOLSS; for pest or weed control at 35 g/ha: 35 g ai/ha; for pest or weed control at 70 g/ha: 70 g ai/ha; for pest or weed control at 140 g/ha: 140 g ai/ha
Procedure, shortened: as §1

[3] = tested on: APESV: bentgrass (Apera spica-venti); experiment: as above; assay type: in vivo; conditions: for pest or weed control at 35 g/ha / pest or weed control at 70 g/ha / pest or weed control at 140 g/ha: Apera spica-venti, post-emergence, 504 h, read-out: Visual Growth Reduction (%) 21 Days After Application APESV; for pest or weed control at 35 g/ha: 35 g ai/ha; for pest or weed control at 70 g/ha: 70 g ai/ha; for GR50 APESV / GR80 APESV: probit analysis; for pest or weed control at 140 g/ha: 140 g ai/ha
Procedure, shortened: as §1

[4] = tested on: LOLSS: ryegrass including, Italian ryegrass (Lolium multiflorum), rigid ryegrass (Lolium rigidum), annual ryegrass (Lolium multiflorum subsp. Gaudini); experiment: as above; assay type: in vivo; conditions: Table 9, probit analysis, 21 d; for GR50 LOLSS: dose for 50 percent growth reduction; for GR80 LOLSS: dose for 80 percent growth reduction
Procedure, shortened: as §1

[5] = tested on: TRZSS: wheat, including spring and winter (Triticum aestivum); experiment: as above; assay type: in vivo; conditions: Table 9, 21 d; for GR20 TRZSS: dose for 20 percent growth reduction, probit analysis; for pest or weed control at 35 g/ha / pest or weed control at 70 g/ha / pest or weed control at 140 g/ha: Triticum aestivum, post-emergence, 504 h, post-emergent, read-out: Visual Growth Reduction (%) 21 Days After Application TRZSS; for pest or weed control at 35 g/ha: 35 g ai/ha; for pest or weed control at 70 g/ha: 70 g ai/ha; for pest or weed control at 140 g/ha: 140 g ai/ha
Procedure, shortened: as §1

[6] = tested on: HORSS: barley, including spring and winter (Hordeum vulgare); experiment: as above; assay type: in vivo; conditions: Table 9, 21 d; for pest or weed control at 35 g/ha / pest or weed control at 70 g/ha / pest or weed control at 140 g/ha: Hordeum vulgare, post-emergence, 504 h, post-emergent, read-out: Visual Growth Reduction (%) 21 Days After Application HORSS; for pest or weed control at 35 g/ha: 35 g ai/ha; for pest or weed control at 70 g/ha: 70 g ai/ha; for GR20 HORSS: dose for 20 percent growth reduction, probit analysis; for pest or weed control at 140 g/ha: 140 g ai/ha
Procedure, shortened: as §1

[7] = tested on: MATSS: scented mayweed (Matricaria chamomilla), pineappleweed (Matricaria matricarioides); experiment: as above; assay type: in vivo
Procedure, shortened: as §1

LAMSS = experiment: as above; assay type: in vivo
Procedure, shortened: as §1

[8] = Table 9, dose for 50 percent growth reduction, 21 d
[9] = Table 9, dose for 80 percent growth reduction, 21 d
[10] = probit analysis, dose for growth reduction of 50 percent, 21 days after application
[11] = probit analysis, dose for growth reduction of 80 percent, 21 days after application
[12] = dose for growth reduction of 50 percent, 21 days after application
[13] = dose for growth reduction of 80 percent, 21 days after application

Structure (SMILES): C#Cc1ccc(-c2nc(N)c(OC)c(C(=O)O)n2)cc1 [Compound 28]
- pest or weed control at 35 g/ha ([1]; Table 9, post-emergent, 21 d): 0 to 29%
- pest or weed control at 70 g/ha ([1]; Table 9, post-emergent, 21 d): 30 to 44%
- GR50 KCHSC [1, 8]: 88 g ai/ha
- GR80 KCHSC [1, 9]: >140 g ai/ha
- pest or weed control at 35 g/ha ([2]; Table 9, post-emergent, 21 d): 0 to 29%
- pest or weed control at 70 g/ha ([2]; Table 9, post-emergent, 21 d): 0 to 29%
- pest or weed control at 35 g/ha ([3]; Table 9, post-emergent, 21 d): 0 to 29%
- pest or weed control at 70 g/ha ([3]; Table 9, post-emergent, 21 d): 0 to 29%
- GR50 APESV [3, 8]: >140 g ai/ha
- GR80 APESV [3, 9]: >140 g ai/ha
- GR50 LOLSS [4]: >140 g ai/ha
- GR80 LOLSS [4]: >140 g ai/ha
- GR20 TRZSS [5]: 17 g ai/ha
- pest or weed control at 35 g/ha [5]: 30 to 44%
- pest or weed control at 70 g/ha [5]: 60 to 74%
- pest or weed control at 35 g/ha [6]: 0 to 29%
- pest or weed control at 70 g/ha [6]: 30 to 44%
- GR20 HORSS [6]: 43 g ai/ha

Structure (SMILES): COC(=O)c1nc(-c2ccc(Br)cc2F)nc(N)c1OC [Compound 35]
- pest or weed control at 35 g/ha ([1]; Table 9, post-emergent, 21 d): 75 to 84%
- pest or weed control at 70 g/ha ([1]; Table 9, post-emergent, 21 d): 85 to 94%
- GR50 KCHSC [1, 8]: 8 g ai/ha
- GR80 KCHSC [1, 9]: 37 g ai/ha
- pest or weed control at 35 g/ha ([2]; Table 9, post-emergent, 21 d): 0 to 29%
- pest or weed control at 70 g/ha ([2]; Table 9, post-emergent, 21 d): 30 to 44%
- pest or weed control at 35 g/ha ([3]; Table 9, post-emergent, 21 d): 0 to 29%
- pest or weed control at 70 g/ha ([3]; Table 9, post-emergent, 21 d): 30 to 44%
- GR50 APESV [3, 8]: 113 g ai/ha
- GR80 APESV [3, 9]: >140 g ai/ha
- GR50 LOLSS [4]: 126 g ai/ha
- GR80 LOLSS [4]: >140 g ai/ha
- GR20 TRZSS [5]: 2 g ai/ha
- pest or weed control at 35 g/ha [5]: 75 to 84%
- pest or weed control at 70 g/ha [5]: 75 to 84%
- pest or weed control at 35 g/ha [6]: 60 to 74%
- pest or weed control at 70 g/ha [6]: 60 to 74%
- GR20 HORSS [6]: 8 g ai/ha

Structure (SMILES): COc1c(N)nc(-c2ccc(Br)cc2F)nc1C(=O)O [Compound 46]
- pest or weed control at 35 g/ha ([1]; Table 9, post-emergent, 21 d): 75 to 84%
- pest or weed control at 70 g/ha ([1]; Table 9, post-emergent, 21 d): 85 to 94%
- pest or weed control at 140 g/ha ([1]; Table 9, post-emergent, 21 d): 85 to 94%
- GR50 KCHSC [1, 8]: 10 g ai/ha
- GR80 KCHSC [1, 9]: 45 g ai/ha
- pest or weed control at 35 g/ha ([2]; Table 9, post-emergent, 21 d): 0 to 29%
- pest or weed control at 70 g/ha ([2]; Table 9, post-emergent, 21 d): 30 to 44%
- pest or weed control at 140 g/ha ([2]; Table 9, post-emergent, 21 d): 45 to 59%
- pest or weed control at 35 g/ha ([3]; Table 9, post-emergent, 21 d): 0 to 29%
- pest or weed control at 70 g/ha ([3]; Table 9, post-emergent, 21 d): 0 to 29%
- pest or weed control at 140 g/ha ([3]; Table 9, post-emergent, 21 d): 45 to 59%
- GR50 APESV [3, 8]: >140 g ai/ha
- GR80 APESV [3, 9]: >140 g ai/ha
- GR50 LOLSS [4]: 118 g ai/ha
- GR80 LOLSS [4]: >140 g ai/ha
- GR20 TRZSS [5]: 1 g ai/ha
- pest or weed control at 35 g/ha [5]: 75 to 84%
- pest or weed control at 70 g/ha [5]: 75 to 84%
- pest or weed control at 140 g/ha [5]: 85 to 94%
- pest or weed control at 35 g/ha [6]: 60 to 74%
- pest or weed control at 70 g/ha [6]: 60 to 74%
- pest or weed control at 140 g/ha [6]: 85 to 94%
- GR20 HORSS [6]: 8 g ai/ha

Structure (SMILES): C#Cc1ccc(-c2nc(N)c(OC)c(C(=O)O)n2)c(F)c1F [Compound 154]
- pest or weed control at 35 g/ha ([1]; Table 9, post-emergent, 21 d): 0 to 29%
- pest or weed control at 70 g/ha ([1]; Table 9, post-emergent, 21 d): 0 to 29%
- pest or weed control at 140 g/ha ([1]; Table 9, post-emergent, 21 d): 0 to 29%
- GR50 KCHSC [1, 8]: 57 g ai/ha
- GR80 KCHSC [1, 9]: 93 g ai/ha
- pest or weed control at 35 g/ha ([2]; Table 9, post-emergent, 21 d): 0 to 29%
- pest or weed control at 70 g/ha ([2]; Table 9, post-emergent, 21 d): 0 to 29%
- pest or weed control at 140 g/ha ([2]; Table 9, post-emergent, 21 d): 0 to 29%
- pest or weed control at 35 g/ha ([3]; Table 9, post-emergent, 21 d): 0 to 29%
- pest or weed control at 70 g/ha ([3]; Table 9, post-emergent, 21 d): 0 to 29%
- pest or weed control at 140 g/ha ([3]; Table 9, post-emergent, 21 d): 0 to 29%
- GR50 APESV [3, 8]: >140 g ai/ha
- GR80 APESV [3, 9]: >140 g ai/ha
- GR50 LOLSS [4]: >140 g ai/ha
- GR80 LOLSS [4]: >140 g ai/ha
- GR20 TRZSS [5]: 49 g ai/ha
- pest or weed control at 35 g/ha [5]: 0 to 29%
- pest or weed control at 70 g/ha [5]: 30 to 44%
- pest or weed control at 140 g/ha [5]: 45 to 59%
- pest or weed control at 35 g/ha [6]: 0 to 29%
- pest or weed control at 70 g/ha [6]: 0 to 29%
- pest or weed control at 140 g/ha [6]: 45 to 59%
- GR20 HORSS [6]: 81 g ai/ha

Structure (SMILES): COC(=O)c1nc(-c2ccc(F)cc2)c(F)c(N)c1Cl [Compound 204]
- pest or weed control at 35 g/ha ([7]; Matricaria chamomilla, post-emergence, 504 h, 35 g ai/ha, read-out: Visual Growth Reduction (%) 21 Days After Application MATSS): 0 to 29%
- pest or weed control at 70 g/ha ([7]; Matricaria chamomilla, post-emergence, 504 h, 70 g ai/ha, read-out: Visual Growth Reduction (%) 21 Days After Application MATSS): 0 to 29%
- pest or weed control at 140 g/ha ([7]; Matricaria chamomilla, post-emergence, 504 h, 140 g ai/ha, read-out: Visual Growth Reduction (%) 21 Days After Application MATSS): 0 to 29%
- GR50 MATSS [7, 10]: >140 g ai/ha
- GR80 MATSS [7, 11]: >140 g ai/ha
- pest or weed control at 35 g/ha [1]: 85 to 94%
- pest or weed control at 70 g/ha [1]: 95 to 100%
- pest or weed control at 140 g/ha [1]: 95 to 100%
- GR50 KCHSC [1, 12]: 2 g ai/ha
- GR80 KCHSC [1, 13]: 9 g ai/ha
- pest or weed control at 35 g/ha [2]: 0 to 29%
- pest or weed control at 70 g/ha [2]: 0 to 29%
- pest or weed control at 140 g/ha [2]: 0 to 29%
- pest or weed control at 35 g/ha (LAMSS; post-emergence, 504 h, 35 g ai/ha, read-out: Visual Growth Reduction (%) 21 Days After Application LAMSS): 85 to 94%
- pest or weed control at 70 g/ha (LAMSS; post-emergence, 504 h, 70 g ai/ha, read-out: Visual Growth Reduction (%) 21 Days After Application LAMSS): 95 to 100%
- pest or weed control at 140 g/ha (LAMSS; post-emergence, 504 h, 140 g ai/ha, read-out: Visual Growth Reduction (%) 21 Days After Application LAMSS): 95 to 100%
- GR50 LAMSS (LAMSS; [10]): 1 g ai/ha
- GR80 LAMSS (LAMSS; [11]): 8 g ai/ha
- pest or weed control at 35 g/ha [3]: 0 to 29%
- pest or weed control at 70 g/ha [3]: 30 to 44%
- pest or weed control at 140 g/ha [3]: 60 to 74%
- GR50 APESV [3, 12]: 106 g ai/ha
- GR80 APESV [3, 13]: >140 g ai/ha
